Laboratory results taken from patent US8815909B2, “Diaminocyclohexane compounds and uses thereof” (Bristol-Myers Squibb Company, priority 2011, dated 2014).

target: T1, human Y4 receptor (Homo sapiens, UniProt P50391); assay: NPY4 cAMP HTRF Agonist Assay (inhibitory cAMP assay, Gi activation by Y4 agonism); format: cell-based; settings: TABLE 2, R2 is Phenyl-CN; read-out: hY4 CAMP EC50
T1 construct: expressed in transfected cells
Summary of the method: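 Y4 agonism read as lowered forskolin-stimulated cAMP (HTRF, 1 h detection at room temperature). Stable human Y4 CHO clone, 5000 cells/well, incubated 30 min at room temperature with compounds plus forskolin and IBMX in PBS.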

T1 sequence (P50391 whole entry): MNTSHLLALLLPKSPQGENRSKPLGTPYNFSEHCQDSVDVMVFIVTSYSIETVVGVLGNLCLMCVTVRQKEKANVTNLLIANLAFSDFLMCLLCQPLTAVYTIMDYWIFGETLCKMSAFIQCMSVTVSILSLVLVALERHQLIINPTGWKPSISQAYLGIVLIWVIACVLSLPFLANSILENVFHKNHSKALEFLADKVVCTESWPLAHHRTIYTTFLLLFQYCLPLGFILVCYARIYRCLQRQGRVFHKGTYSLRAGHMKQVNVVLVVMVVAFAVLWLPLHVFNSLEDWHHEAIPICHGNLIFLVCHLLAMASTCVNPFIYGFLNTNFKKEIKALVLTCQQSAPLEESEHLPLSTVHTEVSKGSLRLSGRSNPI

Compound | EC50 [µM]
N#Cc1ccc(N2CCC[C@H](N[C@@H]3CCCC[C@H]3Nc3cc(-c4ccco4)ccn3)C2)cc1 [Example 247] | 0.015
N#Cc1ccc(N2CCC[C@H](N[C@@H]3CCCC[C@H]3Nc3cc(-c4ccccc4Cl)ccn3)C2)cc1 [Example 248] | 0.557
N#Cc1ccc(N2CCC[C@H](N[C@@H]3CCCC[C@H]3Nc3cc(-c4cccc(C(F)(F)F)c4)ccn3)C2)cc1 [Example 249] | 0.537
N#Cc1ccc(N2CCC[C@H](N[C@@H]3CCCC[C@H]3Nc3cc(-c4cccc(Cl)c4)ccn3)C2)cc1 [Example 250] | 0.559
CC(=O)Nc1cccc(-c2ccnc(N[C@@H]3CCCC[C@H]3N[C@H]3CCCN(c4ccc(C#N)cc4)C3)c2)c1 [Example 251] | 0.001
CC(=O)c1ccccc1-c1ccnc(N[C@@H]2CCCC[C@H]2N[C@H]2CCCN(c3ccc(C#N)cc3)C2)c1 [Example 253] | 0.07
CS(=O)(=O)c1cccc(-c2ccnc(N[C@@H]3CCCC[C@H]3N[C@H]3CCCN(c4ccc(C#N)cc4)C3)c2)c1 [Example 254] | 0.381
CS(=O)(=O)c1ccc(-c2ccnc(N[C@@H]3CCCC[C@H]3N[C@H]3CCCN(c4ccc(C#N)cc4)C3)c2)cc1 [Example 255] | 0.922
CC(=O)c1cccc(-c2ccnc(N[C@@H]3CCCC[C@H]3N[C@H]3CCCN(c4ccc(C#N)cc4)C3)c2)c1 [Example 257] | 0.1
CC(C)(C)c1cccc(-c2ccnc(N[C@@H]3CCCC[C@H]3N[C@H]3CCCN(c4ccc(C#N)cc4)C3)c2)c1 [Example 259] | 0.059
CC(C)(O)c1cccc(-c2ccnc(N[C@@H]3CCCC[C@H]3N[C@H]3CCCN(c4ccc(C#N)cc4)C3)c2)c1 [Example 260] | 0.011
CNC(=O)c1cccc(-c2ccnc(N[C@@H]3CCCC[C@H]3N[C@H]3CCCN(c4ccc(C#N)cc4)C3)c2)c1 [Example 261] | 0.009
COc1ccccc1-c1ccnc(N[C@@H]2CCCC[C@H]2N[C@H]2CCCN(c3ccc(C#N)cc3)C2)c1 [Example 262] | 0.116
COc1cccc(-c2ccnc(N[C@@H]3CCCC[C@H]3N[C@H]3CCCN(c4ccc(C#N)cc4)C3)c2)c1 [Example 263] | 0.087
N#Cc1ccc(N2C[C@@H]3C[C@H](N[C@@H]4CCCC[C@H]4Nc4ncc(-c5cccc(C(N)=O)c5)o4)[C@H]2C3)cc1 [Example 264] | 0.007
N#Cc1ccc(N2CCC[C@H](N[C@@H]3CCCC[C@H]3Nc3ncc(-c4cccc(C(N)=O)c4)o3)C2)cc1 [Example 265] | 0.002
N#Cc1ccc(N2C[C@@H]3C[C@H](N[C@@H]4CCCC[C@H]4Nc4ncc(-c5cccc(C#N)c5)o4)[C@H]2C3)cc1 [Example 266] | 0.181
C[C@@H](O)c1cccc(-c2ccnc(N[C@@H]3CCCC[C@H]3N[C@H]3CCCN(c4ccc(C#N)cc4)C3)c2)c1 [Example 267] | 0.003
C[C@H](O)c1cccc(-c2ccnc(N[C@@H]3CCCC[C@H]3N[C@H]3CCCN(c4ccc(C#N)cc4)C3)c2)c1 [Example 268] | 0.008
N#Cc1ccc(N2CCC[C@H](N[C@@H]3CCCC[C@H]3Nc3cc(-c4cc(C#N)cs4)ccn3)C2)cc1 [Example 269] | 0.223
N#Cc1ccc(N2CCC[C@H](N[C@@H]3CCCC[C@H]3Nc3cc(-c4ccccn4)ccn3)C2)cc1 [Example 270] | 0.468
Cc1ccc(-c2ccnc(N[C@@H]3CCCC[C@H]3N[C@H]3CCCN(c4ccc(C#N)cc4)C3)c2)cc1 [Example 271] | 0.461
N#Cc1ccc(N2CCC[C@H](N[C@@H]3CCCC[C@H]3Nc3cc(-c4ccc(C#N)s4)ccn3)C2)cc1 [Example 273] | 0.542
N#Cc1ccc(N2CCC[C@H](N[C@@H]3CCCC[C@H]3Nc3cc(-c4ccccc4C#N)ccn3)C2)cc1 [Example 274] | 0.272
N#Cc1ccc(N2CCC[C@H](N[C@@H]3CCCC[C@H]3Nc3cc(-c4ccccc4N)ccn3)C2)cc1 [Example 275] | 0.872
N#Cc1ccc(N2CCC[C@H](N[C@@H]3CCCC[C@H]3Nc3cc(-c4ccccc4O)ccn3)C2)cc1 [Example 276] | 0.12
CC(=O)Nc1cc(-c2ccnc(N[C@@H]3CCCC[C@H]3N[C@H]3CCCN(c4ccc(C#N)cc4)C3)c2)ccn1 [Example 277] | 0.008
CS(=O)(=O)NCc1cccc(-c2ccnc(N[C@@H]3CCCC[C@H]3N[C@H]3CCCN(c4ccc(C#N)cc4)C3)c2)c1 [Example 278] | 0.024
N#Cc1ccc(N2CCC[C@H](N[C@@H]3CCCC[C@H]3Nc3cc(-c4cccc(N)c4)ccn3)C2)cc1 [Example 279] | 0.012

Continued, values first:

EC50 [µM] | Compound
0.043 | N#Cc1ccc(N2CCC[C@H](N[C@@H]3CCCC[C@H]3Nc3cc(-n4cccc4)ccn3)C2)cc1 [Example 280]
0.152 | N#Cc1ccc(N2CCC[C@H](N[C@@H]3CCCC[C@H]3Nc3cc4ccccc4cn3)C2)cc1 [Example 281]
0.001 | COC(=O)Nc1cccc(-c2cnc(N[C@@H]3CCCC[C@H]3N[C@H]3CCCN(c4ccc(C#N)cc4)C3)o2)c1 [Example 282]
0.308 | N#Cc1ccc(N2CCC[C@H](N[C@@H]3CCCC[C@H]3Nc3ncc4cc(F)ccc4n3)C2)cc1 [Example 283]
0.176 | N#Cc1ccc(N2CCC[C@H](N[C@@H]3CCCC[C@H]3Nc3cc(-n4cccn4)ccn3)C2)cc1 [Example 284]

same assay, conditions: TABLE 3, R2 is Phenyl-NO2; read-out: hY4 CAMP EC50

EC50 [µM] | Compound
0.026 | N#Cc1ccc(-c2cnc(N[C@@H]3CCCC[C@H]3N[C@H]3CCCN(c4ccc([N+](=O)[O-])cc4)C3)o2)cc1 [Example 285]
0.074 | O=[N+]([O-])c1ccc(N2CCC[C@H](N[C@@H]3CCCC[C@H]3NC3=NOC(c4ccccc4)C3)C2)cc1 (some centres unmarked) [Example 286]
0.001 | C[C@]1(N[C@@H]2CCCC[C@H]2Nc2ncc(-c3ccc(OC(F)(F)F)cc3)o2)CCCN(c2ccc([N+](=O)[O-])cc2)C1 [Example 287]
0.163 | N#Cc1cccc(-c2ccnc(N[C@@H]3CCCC[C@H]3N[C@H]3C[C@@H]4C[C@H]3N(c3ccc([N+](=O)[O-])cc3)C4)c2)c1 [Example 293]
0.041 | NC(=O)c1cccc(-c2ccnc(N[C@@H]3CCCC[C@H]3N[C@H]3C[C@@H]4C[C@H]3N(c3ccc([N+](=O)[O-])cc3)C4)c2)c1 [Example 294]
0.122 | O=[N+]([O-])c1ccc(N2C[C@@H]3C[C@H](N[C@@H]4CCCC[C@H]4Nc4cc(Cl)ncn4)[C@H]2C3)cc1 [Example 295]
0.068 | O=[N+]([O-])c1ccc(N2C[C@@H]3C[C@H](N[C@@H]4CCCC[C@H]4Nc4cc(-c5ccc(OC(F)(F)F)cc5)ncn4)[C@H]2C3)cc1 [Example 296]
0.163 | NC(=O)c1cccc(-c2cc(N[C@@H]3CCCC[C@H]3N[C@H]3C[C@@H]4C[C@H]3N(c3ccc([N+](=O)[O-])cc3)C4)ncn2)c1 [Example 297]

same assay, conditions: TABLE 4, R2 is Pyridinyl-CN; read-out: hY4 CAMP EC50

EC50 [µM] | Compound
0.023 | C[C@]1(N[C@@H]2CCCC[C@H]2Nc2ncc(-c3cccc(C(N)=O)c3)o2)CCCN(c2ccc(C#N)cn2)C1 [Example 298]
0.392 | N#Cc1ccc(N2C[C@@H]3C[C@H](N[C@@H]4CCCC[C@H]4Nc4cc(-c5cccc(C(N)=O)c5)ccn4)[C@H]2C3)nc1 [Example 299]
0.13 | N#Cc1ccc(N2CCC[C@H](N[C@@H]3CCCC[C@H]3Nc3cc(-c4cccc(C(N)=O)c4)ccn3)C2)nc1 [Example 300]
0.066 | C[C@]1(N[C@@H]2CCCC[C@H]2Nc2cc(-c3cccc(C(N)=O)c3)ccn2)CCCN(c2ccc(C#N)cn2)C1 [Example 301]
1.21 | N#Cc1ccc(N2C[C@@H]3C[C@H](N[C@@H]4CCCC[C@H]4Nc4cc(-c5cccc(C(N)=O)c5)ccn4)[C@H]2C3)cn1 [Example 302]
0.221 | N#Cc1ccc(N2C[C@@H]3C[C@H](N[C@@H]4CCCC[C@H]4Nc4ncc(-c5cccc(C(N)=O)c5)o4)[C@H]2C3)cn1 [Example 303]
0.003 | C[C@]1(N[C@@H]2CCCC[C@H]2Nc2ncc(-c3cccc(C(N)=O)c3)o2)CCCN(c2ccc(C#N)nc2)C1 [Example 304]
0.007 | N#Cc1ccc(N2CCC[C@H](N[C@@H]3CCCC[C@H]3Nc3ncc(-c4cccc(C(N)=O)c4)o3)C2)cn1 [Example 305]
0.141 | C[C@]1(N[C@@H]2CCCC[C@H]2Nc2cc(-c3cccc(C(N)=O)c3)ccn2)CCCN(c2ccc(C#N)nc2)C1 [Example 306]
0.007 | N#Cc1cc(N2CCC[C@H](N[C@@H]3CCCC[C@H]3Nc3ncc(-c4ccc(OC(F)(F)F)cc4)o3)C2)ccn1 [Example 307]
0.135 | N#Cc1ccc(N2CCC[C@H](N[C@@H]3CCCC[C@H]3Nc3nccc(-c4ccccc4)n3)C2)cn1 [Example 308]
0.01 | N#Cc1ccc(N2CCC[C@H](N[C@@H]3CCCCC3Nc3ncc(-c4ccc(OC(F)(F)F)cc4)o3)C2)cn1 (some centres unmarked) [Example 309]
0.124 | N#Cc1cc(N2C[C@@H]3C[C@H](N[C@@H]4CCCC[C@H]4Nc4ncc(-c5ccc(OC(F)(F)F)cc5)o4)[C@H]2C3)ccn1 [Example 310]
0.009 | N#Cc1cc(N2CCC[C@H](N[C@@H]3CCCC[C@H]3Nc3ncc(-c4ccccc4OC(F)(F)F)o3)C2)ccn1 [Example 311]
0.124 | N#Cc1ccc(N2CCCC(N[C@@H]3CCCC[C@H]3Nc3cc(-c4cccc(C(N)=O)c4)ccn3)C2)cn1 (some centres unmarked) [Example 312]
0.068 | CC(O)c1cccc(-c2ccnc(N[C@@H]3CCCC[C@H]3NC3CCCN(c4ccc(C#N)nc4)C3)c2)c1 (some centres unmarked) [Example 313]
0.067 | CC(C)(O)c1cccc(-c2ccnc(N[C@@H]3CCCC[C@H]3NC3CCCN(c4ccc(C#N)nc4)C3)c2)c1 (some centres unmarked) [Example 314]
0.015 | N#Cc1ccc(N2CCCC(N[C@@H]3CCCC[C@H]3Nc3ncc(-c4ccc(OC(F)(F)F)cc4)o3)C2)nc1 (some centres unmarked) [Example 315]
0.165 | N#Cc1ccc(N2CCC[C@H](N[C@@H]3CCCC[C@H]3Nc3cc(-c4cccc(C(N)=O)c4)ccn3)C2)cn1 [Example 316]
0.105 | CC(C)(O)c1cccc(-c2ccnc(N[C@@H]3CCCC[C@H]3N[C@H]3CCCN(c4ccc(C#N)nc4)C3)c2)c1 [Example 317]
